# Laboratory results taken from the kinase profiling compilation of Christmann-Franck et al. (2016).
# Columns and labels:
# Experiment in all cases: KINOMEscan competition binding
# Conditions in all cases: compound 2.0 µM
# CAMK2G (human) = CAMK2G (human) (UniProt Q13555)
# CAMK4 (human) = CAMK4 (human) (UniProt Q16566)
# CDC42BPB (human) = CDC42BPB (human) (UniProt Q9Y5S2)
# CDK16 (human) = CDK16 (human) (UniProt Q00536)
# CDK3 (human) = CDK3 (human) (UniProt Q00526)
# CDK7 (human) = CDK7 (human) (UniProt P50613)
# CSNK2A2 (human) = CSNK2A2 (human) (UniProt P19784)
# DCLK1 (human) = DCLK1 (human) (UniProt O15075)
# DMPK (human) = DMPK (human) (UniProt Q09013)
# EGFR (human) = EGFR (human) (UniProt P00533)
# [1] = test system: EGFR (human), P00533 [752-759 del]
# EPHA8 (human) = EPHA8 (human) (UniProt P29322)
# EPHB4 (human) = EPHB4 (human) (UniProt P54760)
# EPHB6 (human) = EPHB6 (human) (UniProt O15197)
# ERN1 (human) = ERN1 (human) (UniProt O75460)
# GSK3B (human) = GSK3B (human) (UniProt P49841)
# [2] = target: JAK1 JH1 catalytic (human) (UniProt P23458)
# [3] = target: JAK2 JH1 catalytic (human) (UniProt O60674)
# MAP4K1 (human) = MAP4K1 (human) (UniProt Q92918)
# MAPK1 (human) = MAPK1 (human) (UniProt P28482)
# MAPK13 (human) = MAPK13 (human) (UniProt O15264)
# MAPK8 (human) = MAPK8 (human) (UniProt P45983)
# MERTK (human) = MERTK (human) (UniProt Q12866)
# MYO3A (human) = MYO3A (human) (UniProt Q8NEV4)
# NTRK1 (human) = NTRK1 (human) (UniProt P04629)
# OXSR1 (human) = OXSR1 (human) (UniProt O95747)
# PAK4 (human) = PAK4 (human) (UniProt O96013)
# PAK6 (human) = PAK6 (human) (UniProt Q9NQU5)
# PIP5K1A (human) = PIP5K1A (human) (UniProt Q99755)
# PRKAA2 (human) = PRKAA2 (human) (UniProt P54646)
# PRKCH (human) = PRKCH (human) (UniProt P24723)
# RIOK3 (human) = RIOK3 (human) (UniProt O14730)
# RPS6KA3 KD1 (human) = RPS6KA3 KD1 (human) (UniProt P51812)
# RPS6KA5 KD1 (human) = RPS6KA5 KD1 (human) (UniProt O75582)
# RPS6KA6 KD2 (human) = RPS6KA6 KD2 (human) (UniProt Q9UK32)
# SRPK1 (human) = SRPK1 (human) (UniProt Q96SB4)
# SRPK2 (human) = SRPK2 (human) (UniProt P78362)
# STK24 (human) = STK24 (human) (UniProt Q9Y6E0)
# STK4 (human) = STK4 (human) (UniProt Q13043)
# TLK1 (human) = TLK1 (human) (UniProt Q9UKI8)
# TTK (human) = TTK (human) (UniProt P33981)
# Chain of TTK (human) (P33981 whole entry, looked up): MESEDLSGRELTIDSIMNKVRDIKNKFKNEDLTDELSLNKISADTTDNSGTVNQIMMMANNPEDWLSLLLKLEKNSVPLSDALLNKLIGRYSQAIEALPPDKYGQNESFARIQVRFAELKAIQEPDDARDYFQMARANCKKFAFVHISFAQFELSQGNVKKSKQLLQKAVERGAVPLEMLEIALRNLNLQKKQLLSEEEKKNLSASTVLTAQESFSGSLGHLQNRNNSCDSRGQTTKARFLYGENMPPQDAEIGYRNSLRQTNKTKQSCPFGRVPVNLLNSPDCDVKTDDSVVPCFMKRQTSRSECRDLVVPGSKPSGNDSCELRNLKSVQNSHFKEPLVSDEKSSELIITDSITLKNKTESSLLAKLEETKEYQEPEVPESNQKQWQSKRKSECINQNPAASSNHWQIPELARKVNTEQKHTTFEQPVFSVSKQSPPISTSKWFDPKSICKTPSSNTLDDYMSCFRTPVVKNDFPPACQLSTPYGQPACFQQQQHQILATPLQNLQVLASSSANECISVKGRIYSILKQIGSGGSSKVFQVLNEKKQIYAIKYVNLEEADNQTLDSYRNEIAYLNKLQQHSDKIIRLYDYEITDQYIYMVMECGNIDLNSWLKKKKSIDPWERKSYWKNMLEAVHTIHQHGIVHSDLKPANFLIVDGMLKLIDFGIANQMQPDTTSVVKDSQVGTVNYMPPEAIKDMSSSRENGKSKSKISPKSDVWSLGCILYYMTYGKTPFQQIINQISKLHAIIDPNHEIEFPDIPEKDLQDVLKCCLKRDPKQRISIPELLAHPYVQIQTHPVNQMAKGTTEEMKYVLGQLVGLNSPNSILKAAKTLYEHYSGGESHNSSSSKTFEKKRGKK
# Chain of PRKCH (human) (P24723 whole entry, looked up): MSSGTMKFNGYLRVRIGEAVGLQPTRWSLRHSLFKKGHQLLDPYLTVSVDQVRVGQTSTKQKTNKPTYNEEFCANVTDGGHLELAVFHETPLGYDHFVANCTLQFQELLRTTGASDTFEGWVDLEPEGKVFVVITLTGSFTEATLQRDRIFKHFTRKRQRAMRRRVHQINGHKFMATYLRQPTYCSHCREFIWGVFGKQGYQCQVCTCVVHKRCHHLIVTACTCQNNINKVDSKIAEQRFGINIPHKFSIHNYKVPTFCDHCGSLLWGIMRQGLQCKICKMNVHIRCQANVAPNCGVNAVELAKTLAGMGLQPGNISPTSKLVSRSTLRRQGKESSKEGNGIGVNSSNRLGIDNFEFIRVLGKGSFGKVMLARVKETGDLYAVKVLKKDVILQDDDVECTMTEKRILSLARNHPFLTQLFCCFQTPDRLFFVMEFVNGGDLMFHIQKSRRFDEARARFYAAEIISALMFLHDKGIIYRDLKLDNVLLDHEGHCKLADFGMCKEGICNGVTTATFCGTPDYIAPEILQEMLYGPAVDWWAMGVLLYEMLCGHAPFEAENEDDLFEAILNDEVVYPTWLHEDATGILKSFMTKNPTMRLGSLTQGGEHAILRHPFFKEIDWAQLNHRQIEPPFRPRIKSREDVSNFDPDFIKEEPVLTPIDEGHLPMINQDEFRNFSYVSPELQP
# Chain of CDK7 (human) (P50613 whole entry, looked up): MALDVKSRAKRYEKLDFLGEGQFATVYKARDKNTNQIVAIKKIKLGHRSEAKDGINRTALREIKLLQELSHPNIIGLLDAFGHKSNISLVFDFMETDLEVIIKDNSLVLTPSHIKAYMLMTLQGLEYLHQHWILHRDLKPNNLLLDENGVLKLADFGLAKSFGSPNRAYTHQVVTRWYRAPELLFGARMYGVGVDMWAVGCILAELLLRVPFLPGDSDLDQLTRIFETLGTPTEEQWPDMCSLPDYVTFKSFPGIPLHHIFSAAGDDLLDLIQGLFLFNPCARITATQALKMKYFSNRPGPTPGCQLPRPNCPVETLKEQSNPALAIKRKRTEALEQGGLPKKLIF
# Chain of CDC42BPB (human) (Q9Y5S2 whole entry, looked up): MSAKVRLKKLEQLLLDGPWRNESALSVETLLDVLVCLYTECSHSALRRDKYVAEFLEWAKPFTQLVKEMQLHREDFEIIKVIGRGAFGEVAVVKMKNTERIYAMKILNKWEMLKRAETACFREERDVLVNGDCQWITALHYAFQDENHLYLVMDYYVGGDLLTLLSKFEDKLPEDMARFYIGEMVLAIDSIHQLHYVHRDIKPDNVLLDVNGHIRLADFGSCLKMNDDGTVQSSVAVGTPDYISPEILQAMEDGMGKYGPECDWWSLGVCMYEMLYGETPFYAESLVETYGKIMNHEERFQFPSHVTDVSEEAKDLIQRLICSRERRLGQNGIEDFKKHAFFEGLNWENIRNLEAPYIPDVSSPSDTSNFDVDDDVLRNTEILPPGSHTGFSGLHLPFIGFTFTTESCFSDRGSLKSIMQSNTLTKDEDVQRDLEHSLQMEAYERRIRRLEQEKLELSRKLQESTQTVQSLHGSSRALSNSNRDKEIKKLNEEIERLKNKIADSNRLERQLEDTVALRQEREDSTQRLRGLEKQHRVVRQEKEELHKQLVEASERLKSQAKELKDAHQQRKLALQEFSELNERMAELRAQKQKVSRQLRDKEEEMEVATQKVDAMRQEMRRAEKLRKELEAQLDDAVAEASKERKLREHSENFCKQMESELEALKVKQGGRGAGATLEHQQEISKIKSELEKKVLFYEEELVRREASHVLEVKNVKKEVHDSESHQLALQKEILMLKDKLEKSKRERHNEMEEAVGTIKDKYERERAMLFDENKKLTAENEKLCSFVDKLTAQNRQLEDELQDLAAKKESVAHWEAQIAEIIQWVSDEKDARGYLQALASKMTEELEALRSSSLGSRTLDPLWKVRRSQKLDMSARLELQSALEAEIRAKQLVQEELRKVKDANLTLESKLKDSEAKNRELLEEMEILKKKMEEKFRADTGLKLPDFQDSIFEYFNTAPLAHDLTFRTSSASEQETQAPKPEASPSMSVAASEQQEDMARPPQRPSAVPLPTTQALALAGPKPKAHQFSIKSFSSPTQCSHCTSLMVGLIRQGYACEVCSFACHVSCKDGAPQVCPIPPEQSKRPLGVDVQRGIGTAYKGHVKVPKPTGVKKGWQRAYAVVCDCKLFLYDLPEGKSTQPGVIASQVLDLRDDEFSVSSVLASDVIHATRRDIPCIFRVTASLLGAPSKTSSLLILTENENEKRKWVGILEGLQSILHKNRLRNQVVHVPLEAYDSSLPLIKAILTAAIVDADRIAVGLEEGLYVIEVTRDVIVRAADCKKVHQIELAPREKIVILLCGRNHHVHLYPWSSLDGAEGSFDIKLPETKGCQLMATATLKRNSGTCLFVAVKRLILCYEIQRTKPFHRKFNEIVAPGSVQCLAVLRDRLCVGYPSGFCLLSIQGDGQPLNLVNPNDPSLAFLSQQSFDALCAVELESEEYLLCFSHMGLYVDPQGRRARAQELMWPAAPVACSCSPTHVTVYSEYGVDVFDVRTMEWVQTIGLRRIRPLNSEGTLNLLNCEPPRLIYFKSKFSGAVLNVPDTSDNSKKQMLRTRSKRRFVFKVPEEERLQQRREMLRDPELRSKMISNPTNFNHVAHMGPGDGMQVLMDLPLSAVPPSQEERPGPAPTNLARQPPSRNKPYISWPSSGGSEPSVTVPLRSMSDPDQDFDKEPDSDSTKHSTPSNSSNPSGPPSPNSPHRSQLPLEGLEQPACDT
# Chain of DMPK (human) (Q09013 whole entry, looked up): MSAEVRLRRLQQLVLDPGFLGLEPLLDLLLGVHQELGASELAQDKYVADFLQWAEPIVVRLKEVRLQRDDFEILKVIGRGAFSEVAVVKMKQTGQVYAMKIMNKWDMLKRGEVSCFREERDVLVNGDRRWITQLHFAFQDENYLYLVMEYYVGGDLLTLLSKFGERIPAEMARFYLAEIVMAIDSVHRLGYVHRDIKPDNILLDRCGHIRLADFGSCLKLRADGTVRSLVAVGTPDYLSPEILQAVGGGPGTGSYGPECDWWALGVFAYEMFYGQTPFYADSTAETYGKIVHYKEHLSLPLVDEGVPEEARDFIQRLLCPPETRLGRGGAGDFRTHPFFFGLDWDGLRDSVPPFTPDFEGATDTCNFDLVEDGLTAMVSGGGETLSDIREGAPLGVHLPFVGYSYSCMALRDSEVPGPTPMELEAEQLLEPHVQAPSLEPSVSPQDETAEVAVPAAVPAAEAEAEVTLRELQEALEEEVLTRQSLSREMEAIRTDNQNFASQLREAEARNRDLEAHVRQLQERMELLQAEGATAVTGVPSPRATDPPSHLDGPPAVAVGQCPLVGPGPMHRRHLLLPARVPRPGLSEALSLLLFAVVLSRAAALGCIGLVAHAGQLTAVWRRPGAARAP
# Chain of NTRK1 (human) (P04629 whole entry, looked up): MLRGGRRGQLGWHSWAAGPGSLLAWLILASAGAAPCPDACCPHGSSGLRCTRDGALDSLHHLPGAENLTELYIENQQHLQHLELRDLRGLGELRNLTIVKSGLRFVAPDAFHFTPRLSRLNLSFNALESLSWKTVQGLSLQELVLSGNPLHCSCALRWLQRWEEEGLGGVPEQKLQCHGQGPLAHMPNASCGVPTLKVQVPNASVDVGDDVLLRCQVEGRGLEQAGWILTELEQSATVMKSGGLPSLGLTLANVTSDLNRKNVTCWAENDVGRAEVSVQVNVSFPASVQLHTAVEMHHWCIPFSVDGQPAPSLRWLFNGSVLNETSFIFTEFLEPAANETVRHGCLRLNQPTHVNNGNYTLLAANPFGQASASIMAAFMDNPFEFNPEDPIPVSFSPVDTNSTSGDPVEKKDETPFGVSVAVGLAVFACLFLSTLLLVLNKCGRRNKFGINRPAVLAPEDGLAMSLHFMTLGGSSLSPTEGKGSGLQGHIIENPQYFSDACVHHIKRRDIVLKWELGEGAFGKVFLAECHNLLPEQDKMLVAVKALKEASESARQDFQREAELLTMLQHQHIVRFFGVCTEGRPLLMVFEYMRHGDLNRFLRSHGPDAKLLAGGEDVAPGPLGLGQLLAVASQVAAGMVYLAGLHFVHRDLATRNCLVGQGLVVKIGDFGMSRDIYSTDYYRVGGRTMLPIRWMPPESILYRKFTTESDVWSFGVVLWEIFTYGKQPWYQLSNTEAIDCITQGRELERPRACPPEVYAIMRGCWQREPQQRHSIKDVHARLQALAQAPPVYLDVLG
smiles,measurement,setting,value
N#Cc1ccc2ncnc(NCCc3ccc4ccccc4c3)c2c1,"kinase still bound, per cent of control",CAMK2G (human),100%
same,"kinase still bound, per cent of control",CAMK4 (human),100%
same,"kinase still bound, per cent of control",CDC42BPB (human),100%
same,"kinase still bound, per cent of control",CDK16 (human),100%
same,"kinase still bound, per cent of control",CDK3 (human),100%
same,"kinase still bound, per cent of control",CDK7 (human),80%
same,"kinase still bound, per cent of control",CSNK2A2 (human),74%
same,"kinase still bound, per cent of control",DCLK1 (human),89%
same,"kinase still bound, per cent of control",DMPK (human),100%
same,"kinase still bound, per cent of control",EGFR (human),75%
same,"kinase still bound, per cent of control",[1],80%
same,"kinase still bound, per cent of control",EPHA8 (human),87%
same,"kinase still bound, per cent of control",EPHB4 (human),100%
same,"kinase still bound, per cent of control",EPHB6 (human),100%
same,"kinase still bound, per cent of control",ERN1 (human),100%
same,"kinase still bound, per cent of control",GSK3B (human),89%
same,"kinase still bound, per cent of control",[2],59%
same,"kinase still bound, per cent of control",[3],100%
same,"kinase still bound, per cent of control",MAP4K1 (human),81%
same,"kinase still bound, per cent of control",MAPK1 (human),100%
same,"kinase still bound, per cent of control",MAPK13 (human),100%
same,"kinase still bound, per cent of control",MAPK8 (human),100%
same,"kinase still bound, per cent of control",MERTK (human),93%
same,"kinase still bound, per cent of control",MYO3A (human),100%
same,"kinase still bound, per cent of control",NTRK1 (human),100%
same,"kinase still bound, per cent of control",OXSR1 (human),100%
same,"kinase still bound, per cent of control",PAK4 (human),91%
same,"kinase still bound, per cent of control",PAK6 (human),80%
same,"kinase still bound, per cent of control",PIP5K1A (human),100%
same,"kinase still bound, per cent of control",PRKAA2 (human),80%
same,"kinase still bound, per cent of control",PRKCH (human),100%
same,"kinase still bound, per cent of control",RIOK3 (human),100%
same,"kinase still bound, per cent of control",RPS6KA3 KD1 (human),97%
same,"kinase still bound, per cent of control",RPS6KA5 KD1 (human),100%
same,"kinase still bound, per cent of control",RPS6KA6 KD2 (human),86%
same,"kinase still bound, per cent of control",SRPK1 (human),100%
same,"kinase still bound, per cent of control",SRPK2 (human),100%
same,"kinase still bound, per cent of control",STK24 (human),92%
same,"kinase still bound, per cent of control",STK4 (human),100%
same,"kinase still bound, per cent of control",TLK1 (human),92%
same,"kinase still bound, per cent of control",TTK (human),75%
